A short description of series [1]: MMV: Cytotoxicity against human fibroblasts (MRC-5) cells. The settings on record: MRC-5 cells (human fibroblasts).
The subject of series [2] is Trypanosoma brucei rhodesiense. Description: MMV: Inhibition of Trypanosoma brucei rhodesiense (STIB 900) (HAT in vitro). It counts as functional, organism-based.
Series [3] has as its system Plasmodium falciparum. In words: MMV: Inhibition of Plasmodium falciparum 3D7 at 5uM compound concentration. It counts as functional.
Series [4] has as its system Plasmodium falciparum. Description: MMV: Inhibition of Plasmodium falciparum 3D7 (EC50). It counts as functional, organism-based.
For series [5], the system named is Trypanosoma brucei brucei. Description: MMV: Inhibition of Trypanosoma brucei brucei (Squib 427) (HAT in vitro). Format: functional, organism-based.
Series [6] concerns Leishmania infantum. Description: MMV: Inhibition of Leishmania infantum (MHOM/MA/BE/67) in vitro. It counts as functional, organism-based.
The subject of series [7] is Trypanosoma cruzi. Description: MMV: Inhibition of Trypanosoma cruzi (Tulahuen C4 LacZ) (Chagas in vitro). It counts as functional, organism-based.

29 compounds from ChEMBL document CHEMBL2028040, “Malaria Box” can be followed below.

As for `O=C(NCc1ccco1)C1CCN(S(=O)(=O)c2ccc(Cl)cc2)CC1`, the IC50 was greater than 32 µM in series [1]; 28.9 µM in series [2]; greater than 32 µM in series [5]; greater than 32 µM in series [6]; greater than 32 µM in series [7]. Further, 5 µM produced 94% inhibition in series [3]. Further, in series [4], the EC50 was determined as 0.891 µM.
Take `COc1ccc2nc(C)cc(Nc3cccc(O)c3)c2c1`: the IC50 is greater than 32 µM in series [1]; 5.08 µM in series [2]; 4.41 µM in series [5]; 16 µM in series [6]; 15 µM in series [7]. The same compound registered an inhibition at 5 µM in series [3] of 98%. The same compound displayed an EC50 in series [4] of 0.969 µM.
As for `CCOc1ccc(CN2CCN(CC(O)COc3ccc(OCC(O)CN4CCN(Cc5ccc(OCC)cc5)CC4)cc3)CC2)cc1` (stereo not drawn), the IC50 in series [1] is 10.7 µM; in series [2] it was 0.964 µM; in series [5], 3.52 µM; in series [6] it was 2.52 µM; in series [7], 2.54 µM. For the same compound, the inhibition at 5 µM in series [3] came out at 97%. The compound further displayed an EC50 in series [4] of 1.2 µM.
Take `COc1ccc(C(=O)Nc2nonc2-c2ccc(OC)c(OC)c2)cc1Cl`: the IC50 in series [1], in series [2], in series [5], in series [6] and in series [7] was greater than 32 µM each time. The compound further came in with an inhibition at 5 µM in series [3] of 92%. This compound also gave an EC50 in series [4] of 0.516 µM.
Take `CC(=O)NCCc1nc2ccccc2n1Cc1ccc(C(C)C)cc1`: the IC50 in series [1], in series [2], in series [5], in series [6] and in series [7] was greater than 32 µM throughout. Also, at 5 µM the inhibition in series [3] was 97%. In addition, in series [4], it took 1.79 µM to reach a half-maximal effect (EC50).
As for `COc1nc(Nc2ccc(C(C)C)cc2)nc(OC)n1`, the concentration for half-maximal inhibition (IC50) was greater than 32 µM in series [1]; 10.7 µM in series [2]; 10.9 µM in series [5]; greater than 32 µM in series [6]; 24.5 µM in series [7]. This compound showed an inhibition at 5 µM in series [3] of 88%. The EC50 in series [4] was 1.14 µM.
In the case of `Nc1ccc(-c2nc3cc(Oc4ccc(Oc5ccc6[nH]c(-c7ccc(N)cc7)nc6c5)cc4)ccc3[nH]2)cc1`, the IC50 in series [1] turned out to be 8 µM; in series [2], 2.74 µM; in series [5], 1.94 µM; in series [6] it was 4.06 µM; in series [7], 3.91 µM. Testing at 5 µM in series [3] gave an inhibition of 97%. In addition, the midpoint of the response in series [4], the EC50, lay at 0.842 µM.
On to `CCOC(=O)c1cnc2ccc(Cl)cc2c1NCCCN(C)C`, for which the 50% inhibitory concentration (IC50) is greater than 32 µM in series [1]; 4.19 µM in series [2]; 7.4 µM in series [5]; 16.1 µM in series [6]; 16.2 µM in series [7]. For the same compound, the inhibition at 5 µM in series [3] was found to be 98%. The EC50 in series [4] turned out to be 1.19 µM.
Take `O=C1c2ccccc2C2=Nc3ccccc3SC(c3cccc(F)c3)C12` (stereo not drawn): the IC50 in series [1] was greater than 32 µM; in series [2] it was 7.17 µM; in series [5] it was greater than 32 µM; in series [6], greater than 32 µM; in series [7] it was greater than 32 µM. Moreover, at 5 µM the inhibition in series [3] was 94%. Further, the EC50 in series [4] was found to be 0.415 µM.
Take `Cc1ccccc1OCCSc1nc2ccc(NC(=O)c3ccccc3)cc2s1`: the IC50 in series [1], in series [2], in series [5], in series [6] and in series [7] was greater than 32 µM in each case. The same compound gave an inhibition at 5 µM in series [3] of 93%. In series [4], this compound showed an EC50 of 1.12 µM.
For `Cc1cc(NC(=O)c2ccc(-c3ccccc3)cc2)no1`, the IC50 in series [1], in series [2], in series [5], in series [6] and in series [7] was greater than 32 µM each time. The compound further displayed an inhibition at 5 µM in series [3] of 95%. The same compound returned an EC50 in series [4] of 0.693 µM.
On to `Cc1ccc(Cn2c(N3CCC(C(=O)NCc4cccs4)CC3)nc3ccccc32)cc1`, for which the IC50 in series [1] was greater than 32 µM; in series [2], greater than 32 µM; in series [5], greater than 32 µM; in series [6] it was 25.4 µM; in series [7], greater than 32 µM. Moreover, at 5 µM the inhibition in series [3] was 73%. Further, the midpoint of the response in series [4], the EC50, lay at 0.947 µM.
As to `Cc1ccc2nc(C)cc(Nc3cccc(C(F)(F)F)c3)c2c1`, the IC50 in series [1] turned out to be 28.9 µM; in series [2] it was 3.86 µM; in series [5], 4.12 µM; in series [6], 3.06 µM; in series [7], 5.96 µM. This compound gave an inhibition at 5 µM in series [3] of 98%. This compound also gave an EC50 in series [4] of 1.17 µM.
With `CC1CC(C)CN(C(=O)c2ccc(Cl)cc2Cl)C1` (stereo not drawn), the IC50 in series [1] is greater than 32 µM; in series [2] it was greater than 32 µM; in series [5], greater than 32 µM; in series [6] it was 17.3 µM; in series [7], 24.7 µM. Moreover, the inhibition at 5 µM in series [3] worked out at 95%. The EC50 in series [4] amounted to 0.756 µM.
Consider `CCCCc1ccc(NS(=O)(=O)c2cc3c4c(c2)CCN4C(=O)CC3)cc1`, for which the IC50 in series [1] was 5.61 µM; in series [2], 16.3 µM; in series [5], greater than 32 µM; in series [6] it was 19 µM; in series [7] it was 13.6 µM. For the same compound, in series [3], 5 µM produced 96% inhibition. This compound also gave an EC50 in series [4] of 0.538 µM.
Take `CCn1c2c(c(=N)c3c1CCC3)CCCC2`: the IC50 in series [1] is 32 µM; in series [2], greater than 32 µM; in series [5], greater than 32 µM; in series [6] it was greater than 32 µM; in series [7], 9.02 µM. In addition, in series [3], 5 µM produced 77% inhibition. The compound also came in with a half-maximal effective concentration (EC50) in series [4] of 0.695 µM.
As for `CCOc1ccccc1CNC(=O)C1c2ccccc2C(=O)N(CC(C)C)C1c1cccs1` (stereo not drawn), the IC50 in series [1] is greater than 32 µM; in series [2], 16.1 µM; in series [5], 16.1 µM; in series [6], greater than 32 µM; in series [7], 14.9 µM. For the same compound, the inhibition at 5 µM in series [3] worked out at 97%. In addition, the EC50 in series [4] turned out to be 1.32 µM.
As for `O=c1nc(C=Cc2ccc(Cl)cc2)oc2ccccc12`, the IC50 in series [1] was greater than 32 µM; in series [2], 27.4 µM; in series [5], greater than 32 µM; in series [6] it was greater than 32 µM; in series [7], greater than 32 µM. Besides, the inhibition at 5 µM in series [3] is 76%. This compound also displayed an EC50 in series [4] of 0.995 µM.
Turning to `O=C(NCc1ccco1)C1CCN(S(=O)(=O)c2ccc(Br)cc2)CC1`, the IC50 in series [1], in series [2], in series [5], in series [6] and in series [7] was greater than 32 µM each time. In series [3], this compound gave an inhibition at 5 µM of 93%. The compound further gave an EC50 in series [4] of 0.939 µM.
As to `COc1ccc(-c2nc3cc(Cc4ccc5[nH]c(-c6ccc(OC)cc6)nc5c4)ccc3[nH]2)cc1`, the IC50 is 4.76 µM in series [1]; less than 0.125 µM in series [2]; 0.179 µM in series [5]; 4.06 µM in series [6]; less than 0.125 µM in series [7]. The compound also yielded an inhibition at 5 µM in series [3] of 98%. In series [4], this compound returned an EC50 of 0.176 µM.
With `COc1ccc2c(c1OC)C(=O)N1c3ccccc3N=C(c3ccc(C)cc3)CC21` (stereo not drawn), the IC50 was greater than 32 µM in series [1]; 3.83 µM in series [2]; 4.28 µM in series [5]; greater than 32 µM in series [6]; greater than 32 µM in series [7]. Testing at 5 µM in series [3] gave an inhibition of 93%. In series [4], this compound showed an EC50 of 1.24 µM.
For `COc1ccc(CCNC(=O)c2cc(S(=O)(=O)N3CC(C)CC(C)C3)ccc2Sc2ccc(F)cc2)cc1OC` (stereo not drawn), the IC50 in series [1], in series [2], in series [5], in series [6] and in series [7] was greater than 32 µM throughout. In addition, the inhibition at 5 µM in series [3] came to 97%. Further, in series [4], the EC50 was 0.632 µM.
As for `CCCCCCOC(=O)C1=C(C)NC(=O)NC1c1ccccc1F` (stereo not drawn), the IC50 in series [1] is greater than 32 µM; in series [2], greater than 32 µM; in series [5], greater than 32 µM; in series [6], 18.4 µM; in series [7] it was greater than 32 µM. Also, testing at 5 µM in series [3] gave an inhibition of 95%. This compound yielded a 50% effective concentration (EC50) in series [4] of 0.106 µM.
For the compound `COc1cc(OC)cc(N2C(=O)N(Cc3ccc(C(C)(C)C)cc3)c3ccccc3S2(=O)=O)c1`, the IC50 in series [1] is greater than 32 µM; in series [2] it was 4.06 µM; in series [5] it was 18.4 µM; in series [6], 16.2 µM; in series [7], 8.64 µM. In addition, the inhibition at 5 µM in series [3] is 97%. Further, in series [4], the concentration for a half-maximal effect (EC50) came to 1.43 µM.
With `CCCc1c(CC)c(=N)c2ccccc2n1C`, the IC50 is 30.6 µM in series [1]; 16.2 µM in series [2]; 21 µM in series [5]; greater than 32 µM in series [6]; 0.415 µM in series [7]. In series [3], this compound yielded an inhibition at 5 µM of 69%. In series [4], this compound had an EC50 of 0.242 µM.
With `CCCN(CCC)CCCNC(=O)c1cc2c(-c3ccc(OC)c(OC)c3)nn(C)c2s1`, the IC50 was greater than 32 µM in series [1]; 14.6 µM in series [2]; greater than 32 µM in series [5]; 16 µM in series [6]; 27.5 µM in series [7]. In series [3], this compound came in with an inhibition at 5 µM of 98%. The compound also had an EC50 in series [4] of 1.43 µM.
As to `CCOC(=O)c1cnc2c(C)cc(C)cc2c1Nc1ccc(OC)c(OC)c1`, the IC50 in series [1], in series [2], in series [5], in series [6] and in series [7] was greater than 32 µM throughout. This compound returned an inhibition at 5 µM in series [3] of 96%. This compound also gave an EC50 in series [4] of 0.232 µM.
As for `CCCn1c(=N)c(C(=O)NC2CCCCC2)cc2c(=O)n3cccc(C)c3nc21`, the 50% inhibitory concentration (IC50) in series [1] is greater than 32 µM; in series [2], 8.44 µM; in series [5], 16.1 µM; in series [6], greater than 32 µM; in series [7] it was greater than 32 µM. Besides, the inhibition at 5 µM in series [3] is 96%. Moreover, the EC50 in series [4] came out at 1.11 µM.
Take `C=CCc1c(C)nc2ccccc2c1O`: the concentration for half-maximal inhibition (IC50) in series [1], in series [2], in series [5], in series [6] and in series [7] was greater than 32 µM each time. The same compound came in with an inhibition at 5 µM in series [3] of 85%. The same compound registered an EC50 in series [4] of 1.29 µM.

As a reminder, the IC50 is the concentration that gives 50% inhibition. What is called inhibition is the share of the control response that was lost under treatment. A low value points to a response near the control. As usually defined, the EC50 is the concentration needed to bring the measured effect to its halfway point. Low readings indicate a more potent agent, high ones a less potent agent.
